Results taken from PMC11226541 (Cancer Medicine, 2024).
Read-outs that look alike come from different tables or passages of the source. Values belong to the molecule of their own block, whether it stands above or below them.

Experiments:
[1] = test system: patients with locally advanced and metastatic solid tumors; test: Dose-limiting toxicities, MTD and RP2D, dose-escalation stage (modified 3 + 3); assay type: in vivo, human; conditions: QD, with pamiparib 60 mg BID
Description: AEs were coded using MedDRA v25.0 or higher.

[2] = Pharmacokinetics of TMZ in plasma (combination with pamiparib); assay type: in vivo; conditions: human, po, read-out: mean plasma concentration of TMZ 1 h after oral administration
Experimental: (§1) PK of pamiparib and TMZ were assessed in blood samples collected at various timepoints following administration (pamiparib: ≤30 min before dosing, 1 h ± 15 min, 2 h ± 30 min, and 4 h ± 30 min after pamiparib dose on cycle 1 Day 1 and cycle 1 Day 15; TMZ: on cycle 1 Day 1 and Day 7 at ≤30 min before dosing and 1 h ± 15 min after TMZ dose). Parameters for pamiparib included the maximum observed plasma concentration (Cmax), lowest concentration reached before the next administered dose (Ctrough), half‐life (T1/2), and time to reach peak plasma concentration (Tmax). Biomarkers were analyzed in blood samples, processed into serum, plasma, and cell fractions for the analysis of germline mutations and circulating markers. Available archival or fresh tumor tissue samples were analyzed at a central laboratory. Tumor tissue was sent either as a formalin‐fixed, paraffin‐embedded block with tumor tissue (preferred) or as approximately 10 unstained slides.

recurrent glioblastoma = test system: recurrent glioblastoma; parameters: method as in PMID 32347934; conditions: combination with TMZ; cited from earlier work
[3] = Pharmacokinetics of pamiparib in plasma (combination with TMZ); assay type: in vivo, human; conditions: for concentration at 2 h: read-out: geometric mean pamiparib concentration at 2 h post dose
Experimental: as §1

[4] = test system: advanced or metastatic solid tumors; conditions: cited from earlier work
[5] = test system: BRCA1/2-mutated ovarian cancer; parameters: method as in PMID 34844979; conditions: monotherapy, cited from earlier work
[6] = test system: triple-negative breast cancer with germline BRCA1/2 mutations; parameters: method as in PMID 36459284; conditions: monotherapy, TNBC patients with germline BRCA1/2 mutations; cited from earlier work
[7] = parameters: method as in PMID 32652442; conditions: cited from earlier work
advanced malignancies = test system: advanced malignancies; parameters: method as in PMID 36136304; conditions: combination with TMZ, related AEs; cited from earlier work

SMILES: Cn1nnc2c(C(N)=O)ncn2c1=O [TMZ, Temozolomide]
RP2D of TMZ ([1]; 7-day pulsed): 60 mg
maximum tolerated dose of TMZ ([1]; 7-day pulsed): 60 mg
maximum tolerated dose of TMZ ([1]; continuous): 20 mg
concentration at 1 h ([2]; cycle 1 Day 1, 20-mg dose): 338 ng/mL
concentration at 1 h ([2]; cycle 1 Day 1, 120-mg dose): 1510 ng/mL

SMILES: O=C(c1cc(Cc2n[nH]c(=O)c3ccccc23)ccc1F)N1CCN(C(=O)C2CC2)CC1 [olaparib]
Grade 3/4 neutropenia (recurrent glioblastoma): 13%
Grade 3/4 thrombocytopenia (recurrent glioblastoma): 25%

geometric mean AUC0-4 at steady state relative to single-dose pamiparib administration ([3]; combination with TMZ): approximately twice
concentration at 2 h ([3]; human, plasma, oral, cycle 1 Day 1, combination with TMZ): 1580 ng/mL
concentration at 2 h ([3]; human, plasma, oral, cycle 1 Day 15, combination with TMZ): 3480 ng/mL
AUC(0-t) ([3]; human, plasma, oral, steady state with combination TMZ therapy (cycle 1 Day 15), pamiparib 60 mg BID, read-out: pamiparib geometric mean AUC0-4): 11100 ng·h/mL
Cmax ([3]; oral, pamiparib 60 mg BID with TMZ, human plasma, n/N 20/20, read-out: Cmax – mean (SD)): 2010 ng/mL
Tmax ([3]; oral, pamiparib 60 mg BID with TMZ, human plasma, n/N 20/20, read-out: Tmax – mean (SD)): 4 h
AUC0-4, SS – geometric mean ([3]; pamiparib 60 mg BID with TMZ, steady state, cycle 1, day 15, human plasma, n/N 8/20): 11,119 h*ng/mL
Ctrough, SS – mean (SD) ([3]; pamiparib 60 mg BID with TMZ, steady state, cycle 1, day 15, human plasma, n/N 14/20): 2,934 (2346) ng/mL
SMILES: C[C@]12CCCN1CC1=NNC(=O)c3cc(F)cc4[nH]c2c1c34 [pamiparib, Pamiparib]
RP2D of pamiparib ([4]; administered orally, BID): 60 mg
ORR ([4]; monotherapy, advanced or metastatic solid tumors): 27.3%
ORR ([5]; BRCA1/2-mutated platinum-resistant ovarian cancer): 31.6%
ORR ([5]; BRCA1/2-mutated platinum-sensitive ovarian cancer): 64.6%
ORR [6]: 38.2%
brain penetration ([7]; mice and rats): strong brain penetration
drug exposure in the brain ([7]; mice): higher drug exposure in the brain compared with other PARP inhibitors

SMILES: Cn1ncnc1[C@H]1c2n[nH]c(=O)c3cc(F)cc(c23)N[C@@H]1c1ccc(F)cc1 [talazoparib]
Grade 3/4 neutropenia (advanced malignancies): 28%
Grade 3/4 thrombocytopenia (advanced malignancies): 33%
